Measured values published in article PMC7794376 (Nature Communications, 2021).
Values joined by “and” are separate entries in the source; they are usually repeats but may differ in a detail not shown here. Identical values can stand only once.

Target: MtbCoaBC (Mycobacterium tuberculosis, UniProt P9WNZ1)
Experiment: biochemical
Format: biochemical
Details: for Activity % / Inhibition %: MtbCoaBC, replicates R1-R3; for Activity % / Activity % R1 / Activity % R3: relative to average CT; for reaction rate (slope of absorbance at 360 nm versus time), replicates: IC50 MtbCoaBC MlCoA; for reaction rate (slope of absorbance at 360 nm versus time), replicates / % inhibition, replicates / % remaining activity relative to uninhibited control, replicates: three replicates; for Activity % R1 / Inhibition % R1 / Activity R1: replicate R1; for Activity % R3 / Inhibition % R3 / Activity R3: replicate R3; for Activity R1 / Activity R3: slope of absorbance at 360 nm vs time (s)
[1] = MlCoA concentration 512 (log 2.70927; unit not given)
[2] = MlCoA concentration 1024 (log 3.0103; unit not given)

Sequence of MtbCoaBC (P9WNZ1 whole entry): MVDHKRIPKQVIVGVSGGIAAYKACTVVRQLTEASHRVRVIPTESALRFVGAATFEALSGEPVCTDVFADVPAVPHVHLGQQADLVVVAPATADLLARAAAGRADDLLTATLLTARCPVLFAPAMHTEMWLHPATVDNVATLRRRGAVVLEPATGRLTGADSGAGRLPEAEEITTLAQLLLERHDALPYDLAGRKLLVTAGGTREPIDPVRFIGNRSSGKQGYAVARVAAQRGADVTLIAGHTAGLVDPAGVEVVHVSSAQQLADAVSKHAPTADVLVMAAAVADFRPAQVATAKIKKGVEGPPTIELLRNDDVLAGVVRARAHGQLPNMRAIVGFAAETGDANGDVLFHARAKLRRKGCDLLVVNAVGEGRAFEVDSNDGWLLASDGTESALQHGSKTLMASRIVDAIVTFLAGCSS

CC(C)(COP(=O)(O)OP(=O)(O)OC[C@H]1O[C@@H](n2cnc3c(N)ncnc32)[C@H](O)[C@@H]1OP(=O)(O)O)[C@@H](O)C(=O)NCCC(=O)NCCSC(=O)CC(=O)O [MlCoA, malonyl-CoA]
Activity % (8 uM MlCoA): 92.1% and 91.15% and 93.21%
Inhibition % (8 uM MlCoA): 8.85% and 6.79% and 7.90%
Activity % (16 uM MlCoA): 76.14% and 76.7% and 75.8%
Inhibition % (16 uM MlCoA): 23.30% and 24.20% and 23.86%
Activity % (32 uM MlCoA): 63.4% and 64.14% and 61%
Inhibition % (32 uM MlCoA): 35.86% and 39.00% and 36.60%
Activity % (64 uM MlCoA): 43.31% and 44.56% and 41.61%
Inhibition % (64 uM MlCoA): 55.44% and 58.39% and 56.69%
Activity % (128 uM MlCoA): 23.32% and 26.33% and 20.47%
Inhibition % (128 uM MlCoA): 73.67% and 79.53% and 76.68%
Activity % (256 uM MlCoA): 12.52% and 10.98% and 14.64%
Inhibition % (256 uM MlCoA): 89.02% and 85.36% and 87.48%
IC50 (CoaB activity, […] CTP, […] PPA, 500 µM L-cysteine, average of three independent experiments ± SD, read-out: IC50 EnzChek MtbCoaBC): 48 ± 3 µM
reaction rate (slope of absorbance at 360 nm versus time), replicates [1]: 0.000003647 and 0.000000222 and 0.000004502
% inhibition, replicates [1]: 99.87 and 97.43 and 97.92
% remaining activity relative to uninhibited control, replicates [1]: 2.081 and 0.1265 and 2.569
reaction rate (slope of absorbance at 360 nm versus time), replicates [2]: 0.000003588 and 0.000000204 and 0.000003109
% inhibition, replicates [2]: 99.88 and 98.23 and 97.95
% remaining activity relative to uninhibited control, replicates [2]: 2.047 and 0.1162 and 1.774

succinyl-CoA [SucCoA]
Activity % R1 (8 uM SucCoA): 96.11%
Activity % R3 (8 uM SucCoA): 95.1%
Inhibition % R1 (8 uM SucCoA): 3.89%
Inhibition % R3 (8 uM SucCoA): 4.90%
Activity R1 (8 uM SucCoA): 0.0001648
Activity R3 (8 uM SucCoA): 0.0001631
Activity % R1 (16 uM SucCoA): 73.57%
Activity % R3 (16 uM SucCoA): 71.48%
Inhibition % R1 (16 uM SucCoA): 26.43%
Inhibition % R3 (16 uM SucCoA): 28.52%
Activity R1 (16 uM SucCoA): 0.0001261
Activity R3 (16 uM SucCoA): 0.0001226
Activity % R1 (32 uM SucCoA): 58.32%
Activity % R3 (32 uM SucCoA): 59.99%
Inhibition % R1 (32 uM SucCoA): 41.68%
Inhibition % R3 (32 uM SucCoA): 40.01%
Activity R1 (32 uM SucCoA): 0.000099995
Activity R3 (32 uM SucCoA): 0.0001029
Activity % R1 (64 uM SucCoA): 30.98%
Activity % R3 (64 uM SucCoA): 29.66%
Inhibition % R1 (64 uM SucCoA): 69.02%
Inhibition % R3 (64 uM SucCoA): 70.34%
Activity R1 (64 uM SucCoA): 0.000053122
Activity R3 (64 uM SucCoA): 0.000050860
Activity % R1 (128 uM SucCoA): 16.56%
Activity % R3 (128 uM SucCoA): 18.74%
Inhibition % R1 (128 uM SucCoA): 83.44%
Inhibition % R3 (128 uM SucCoA): 81.26%
Activity R1 (128 uM SucCoA): 0.000028403
Activity R3 (128 uM SucCoA): 0.000032131
Activity % R1 (256 uM SucCoA): 6.801%
Activity % R3 (256 uM SucCoA): 8.41%
Inhibition % R1 (256 uM SucCoA): 93.20%
Inhibition % R3 (256 uM SucCoA): 91.59%
Activity R1 (256 uM SucCoA): 0.000011661
Activity R3 (256 uM SucCoA): 0.000014421
